Measured values taken from patent publication US20240208992A1, “MACROCYCLES AS CFTR MODULATORS” (Idorsia Pharmaceuticals Ltd, priority 2021, published 2024).

Molecular target: human F508del-CFTR (Homo sapiens, UniProt P13569, DEL508-508)
Assay: F508del-CFTR cell surface expression (corrector activity), DiscoveRx ß-galactosidase complementation chemiluminescence assay in recombinant U2OS cell line;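 also: U2OS cells co-expressing ProLink-tagged F508del-CFTR and a membrane-anchored enzyme acceptor, where more surface CFTR restores β-galactosidase activity measured by chemiluminescence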
Details: for EC50: EC50, F508del-CFTR cell surface expression, U2OS cells, 16h compound incubation, geomean values; for Emax: in relation to Emax of corrector lumacaftor (=100%), arithmetic mean values

Chain of human F508del-CFTR (P13569 with tags, fused parts or gaps DEL508-508): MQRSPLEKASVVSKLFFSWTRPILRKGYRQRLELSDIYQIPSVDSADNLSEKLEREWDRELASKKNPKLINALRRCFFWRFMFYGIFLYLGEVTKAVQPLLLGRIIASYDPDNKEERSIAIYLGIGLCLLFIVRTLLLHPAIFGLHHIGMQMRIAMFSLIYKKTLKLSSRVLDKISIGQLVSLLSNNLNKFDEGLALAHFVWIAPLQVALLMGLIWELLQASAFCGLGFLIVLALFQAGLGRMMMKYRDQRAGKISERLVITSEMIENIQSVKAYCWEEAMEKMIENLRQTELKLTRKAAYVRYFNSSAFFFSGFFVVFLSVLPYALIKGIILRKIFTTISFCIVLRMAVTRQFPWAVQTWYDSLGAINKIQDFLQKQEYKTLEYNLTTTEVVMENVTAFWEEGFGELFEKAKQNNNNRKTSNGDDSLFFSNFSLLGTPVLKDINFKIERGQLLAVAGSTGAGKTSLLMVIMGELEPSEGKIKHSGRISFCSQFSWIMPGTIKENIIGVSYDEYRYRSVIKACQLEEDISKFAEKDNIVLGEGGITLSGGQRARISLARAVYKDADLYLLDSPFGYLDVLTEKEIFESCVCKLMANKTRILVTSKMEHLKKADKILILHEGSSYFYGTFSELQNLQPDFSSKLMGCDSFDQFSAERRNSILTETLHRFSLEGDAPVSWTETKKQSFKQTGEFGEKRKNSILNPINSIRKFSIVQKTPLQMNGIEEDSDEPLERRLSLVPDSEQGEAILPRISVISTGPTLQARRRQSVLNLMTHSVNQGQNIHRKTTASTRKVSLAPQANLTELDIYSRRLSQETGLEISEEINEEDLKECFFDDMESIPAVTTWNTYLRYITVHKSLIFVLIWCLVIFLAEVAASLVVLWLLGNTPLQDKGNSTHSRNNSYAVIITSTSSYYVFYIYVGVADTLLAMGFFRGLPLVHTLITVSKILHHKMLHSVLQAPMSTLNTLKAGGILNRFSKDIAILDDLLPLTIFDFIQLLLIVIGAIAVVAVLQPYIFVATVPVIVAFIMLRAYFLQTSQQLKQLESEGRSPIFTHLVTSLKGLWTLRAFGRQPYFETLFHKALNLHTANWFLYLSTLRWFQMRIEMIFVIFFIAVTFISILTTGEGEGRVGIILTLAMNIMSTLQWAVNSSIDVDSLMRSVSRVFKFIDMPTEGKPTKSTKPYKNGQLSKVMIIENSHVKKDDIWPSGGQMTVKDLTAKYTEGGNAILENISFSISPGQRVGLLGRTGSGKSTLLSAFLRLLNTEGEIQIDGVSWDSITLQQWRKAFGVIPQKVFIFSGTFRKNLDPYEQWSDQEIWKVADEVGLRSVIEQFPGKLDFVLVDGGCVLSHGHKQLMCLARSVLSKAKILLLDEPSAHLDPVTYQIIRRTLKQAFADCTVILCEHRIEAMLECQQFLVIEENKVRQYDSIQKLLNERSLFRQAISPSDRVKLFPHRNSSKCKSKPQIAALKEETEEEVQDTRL

SMILES	EC50	Emax (U2OS)	Emax
CC(C)C[C@H]1C(=O)N2CCCC[C@H]2C(=O)N[C@H](Cc2ccccc2)COc2cnc3ccc(F)cc3c2C(=O)N[C@H](C(=O)NCCc2noc(C3CC3)n2)CC(=O)N1C [Example 520, (9S,13S,19aS,22R)-22-benzyl-N-(2-(5-cyclopropyl-1,2,4-oxadiazol-3-yl)ethyl)-5-fluoro-13-isobutyl-12-methyl-7,11,14,20-tetraoxo-7,8,9,10,11,12,13,14,17,18,19,19a,20,21,22,23-hexadecahydro-16H-pyrido[2′,11:6,7][1]oxa[4,7,10,14]tetraazacycloheptadecino[17,16-c]quinoline-9-carboxamide]	0.345 µM	155%	
CC(C)C[C@H]1C(=O)N2CCCC[C@H]2C(=O)N[C@H](Cc2ccccc2)COc2cnc3ccc(F)cc3c2C(=O)N[C@H](C(=O)NCCc2nc(C3CC3)no2)CC(=O)N1C [Example 521, (9S,13S,19aS,22R)-22-benzyl-N-(2-(3-cyclopropyl-1,2,4-oxadiazol-5-yl)ethyl)-5-fluoro-13-isobutyl-12-methyl-7,11,14,20-tetraoxo-7,8,9,10,11,12,13,14,17,18,19,19a,20,21,22,23-hexadecahydro-16H-pyrido[2′,1′:6,7][1]oxa[4,7,10,14]tetraazacycloheptadecino[17,16-c]quinoline-9-carboxamide]	0.433 µM	191%	
COc1nccc2c1C(=O)N[C@H](C(=O)NCCc1cc(C3CC3)no1)CC(=O)N(C)[C@@H](CC(C)C)C(=O)N1CCCC[C@@H]1C(=O)N[C@H](Cc1ccccc1)CO2 [Example 523, (7S,11S,17aR,20R)-20-benzyl-N-(2-(3-cyclopropylisoxazol-5-yl)ethyl)-11-isobutyl-4-methoxy-10-methyl-5,9,12,18-tetraoxo-5,6,7,8,9,10,11,12,15,16,17,17a,18,19,20,21-hexadecahydro-14H-dipyrido[2,1-f:3′,4′-p][1]oxa[4,7,10,14]tetraazacycloheptadecine-7-carboxamide]	0.483 µM	352%	
COc1cccc(CCNC(=O)[C@@H]2CC(=O)N(C)[C@@H](CC(C)C)C(=O)N3CCCC[C@@H]3C(=O)N[C@H](Cc3ccccc3)COc3cnc4ccc(Cl)cc4c3C(=O)N2)c1 [Example 528, (9S,13S,19aR,22R)-22-benzyl-5-chloro-13-isobutyl-N-(3-methoxyphenethyl)-12-methyl-7,11,14,20-tetraoxo-7,8,9,10,11,12,13,14,17,18,19,19a,20,21,22,23-hexadecahydro-16H-pyrido[2′,11:6,7][1]oxa[4,7,10,14]tetraazacycloheptadecino[17,16-c]quinoline-9-carboxamide]	0.321 µM	337%	
COc1cc2c(cn1)OC[C@@H](Cc1ccccc1)NC(=O)[C@H]1CCCCN1C(=O)[C@H](CC(C)C)N(C)C(=O)C[C@@H](C(=O)NCCc1nc(C3CC3)no1)NC2=O [Example 529, (7S,11S,17aR,20R)-20-benzyl-N-(2-(3-cyclopropyl-1,2,4-oxadiazol-5-yl)ethyl)-11-isobutyl-3-methoxy-10-methyl-5,9,12,18-tetraoxo-5,6,7,8,9,10,11,12,15,16,17,17a,18,19,20,21-hexadecahydro-14H-dipyrido[2,1-f:2′,3′-p][1]oxa[4,7,10,14]tetraazacycloheptadecine-7-carboxamide]	0.947 µM	206%	
COc1cccc(CCNC(=O)[C@@H]2CC(=O)N(C)[C@@H](CC(C)C)C(=O)N(C)CC(=O)N[C@H](Cc3ccccc3)COc3ncc4ccccc4c3C(=O)N2)c1 [Example 530]	0.334 µM	353%	
COc1cccc(CCNC(=O)[C@@H]2CC(=O)N(C)[C@@H](CC(C)C)C(=O)N(C)CC(=O)N[C@H](Cc3ccccc3)COc3ccc4cc(C)oc4c3C(=O)N2)c1 [Example 531, (8R,14S,18S)-8-benzyl-14-isobutyl-N-(3-methoxyphenethyl)-2,12,15-trimethyl-10,13,16,20-tetraoxo-7,8,9,10,11,12,13,14,15,16,17,18,19,20-tetradecahydrobenzofuro[7,6-p][1]oxa[4,7,10,14]tetraazacycloheptadecine-18-carboxamide]	0.265 µM	336%	

Further lines, results first:

EC50	Emax (U2OS)	Emax	SMILES
0.184 µM	332%		CC(C)C[C@H]1C(=O)N(C)C2(CC2)C(=O)N[C@H](Cc2ccccc2)COc2cnc3ccc(F)cc3c2C(=O)N[C@H](C(=O)NCCc2cc(C3CC3)no2)CC(=O)N1C [Example 519, (3′S,7′S,13′R)-13′-benzyl-N-(2-(3-cyclopropylisoxazol-5-yl)ethyl)-20′-fluoro-7′-isobutyl-6′,9′-dimethyl-1′,5′,8′,11′-tetraoxo-2′,3′,4′,5′,6′,7′,8′,9′,11′,12′,13′,14′-dodecahydro-1′H-spiro[cyclopropane-1,10′-[1]oxa[4,7,10,14]tetraazacycloheptadecino[17,16-c]quinoline]-3′-carboxamide]
0.204 µM	237%		CC(C)C[C@H]1C(=O)N2CCCC[C@H]2C(=O)N[C@H](Cc2ccccc2)COc2cnc3c(F)cccc3c2C(=O)N[C@H](C(=O)NCCc2ccc(-n3nccn3)cc2)CC(=O)N1C [Example 522, (9S,13S,19aR,22R)-N-(4-(2H-1,2,3-triazol-2-yl)phenethyl)-22-benzyl-3-fluoro-13-isobutyl-12-methyl-7,11,14,20-tetraoxo-7,8,9,10,11,12,13,14,17,18,19,19a,20,21,22,23-hexadecahydro-16H-pyrido[2′,1′:6,7][1]oxa[4,7,10,14]tetraazacycloheptadecino[17,16-c]quinoline-9-carboxamide]
0.06 µM	339%		CC(C)C[C@H]1C(=O)N2CCN(c3ccccc3)C[C@H]2C(=O)N[C@H](Cc2ccccc2)COc2cnc3ccc(F)cc3c2C(=O)N[C@H](C(=O)NCCc2cc(C3CC3)no2)CC(=O)N1C [Example 524, (9S,13S,19aR,22R)-22-benzyl-N-(2-(3-cyclopropylisoxazol-5-yl)ethyl)-5-fluoro-13-isobutyl-12-methyl-7,11,14,20-tetraoxo-18-phenyl-7,8,9,10,11,12,13,14,17,18,19,19a,20,21,22,23-hexadecahydro-16H-pyrazino[2′,11:6,7][1]oxa[4,7,10,14]tetraazacycloheptadecino[17,16-c]quinoline-9-carboxamide]
0.056 µM	288%		CC(C)C[C@H]1C(=O)N2CCN(c3ccccc3)C[C@H]2C(=O)N[C@H](Cc2ccccc2)COc2cnc3ccc(F)cc3c2C(=O)N[C@H](C(=O)NCCc2nc(C3CC3)no2)CC(=O)N1C [Example 525, (9S,13S,19aR,22R)-22-benzyl-N-(2-(3-cyclopropyl-1,2,4-oxadiazol-5-yl)ethyl)-5-fluoro-13-isobutyl-12-methyl-7,11,14,20-tetraoxo-18-phenyl-7,8,9,10,11,12,13,14,17,18,19,19a,20,21,22,23-hexadecahydro-16H-pyrazino[2′,11:6,7][1]oxa[4,7,10,14]tetraazacycloheptadecino[17,16-c]quinoline-9-carboxamide]
0.394 µM		167%	COc1cc2c(cn1)OC[C@@H](Cc1ccccc1)NC(=O)[C@H]1CCCCN1C(=O)[C@H](CC(C)C)N(C)C(=O)C[C@@H](C(=O)NCCc1cc(C3CC3)on1)NC2=O [Example 526, (7S,11S,17aR,20R)-20-benzyl-N-(2-(5-cyclopropylisoxazol-3-yl)ethyl)-11-isobutyl-3-methoxy-10-methyl-5,9,12,18-tetraoxo-5,6,7,8,9,10,11,12,15,16,17,17a,18,19,20,21-hexadecahydro-14H-dipyrido[2,1-f:4′,3′-p][1]oxa[4,7,10,14]tetraazacycloheptadecine-7-carboxamide]
0.151 µM	318%		Cc1cc(CCNC(=O)[C@@H]2CC(=O)N(C)[C@@H](CC(C)C)C(=O)N3CCCC[C@H]3C(=O)N[C@H](Cc3ccccc3)COc3cnc4ccc(Cl)cc4c3C(=O)N2)on1 [Example 527, (9S,13S,19aR,22R)-22-benzyl-5-chloro-13-isobutyl-12-methyl-N-(2-(3-methylisoxazol-5-yl)ethyl)-7,11,14,20-tetraoxo-7,8,9,10,11,12,13,14,17,18,19,19a,20,21,22,23-hexadecahydro-16H-pyrido[2′,11:6,7][1]oxa[4,7,10,14]tetraazacycloheptadecino[17,16-c]quinoline-9-carboxamide]
0.397 µM	375%		Cc1cc2ccc3c(c2o1)C(=O)N[C@H](C(=O)NCCc1cc(C2CC2)no1)CC(=O)N(C)[C@@H](CC(C)C)C(=O)N(C)CC(=O)N[C@H](Cc1ccccc1)CO3 [Example 532, (8R,14S,18S)-8-benzyl-N-(2-(3-cyclopropylisoxazol-5-yl)ethyl)-14-isobutyl-2,12,15-trimethyl-10,13,16,20-tetraoxo-7,8,9,10,11,12,13,14,15,16,17,18,19,20-tetradecahydrobenzofuro[7,6-p][1]oxa[4,7,10,14]tetraazacycloheptadecine-18-carboxamide]
0.221 µM	352%		COc1cc(CCNC(=O)[C@@H]2CC(=O)N(C)[C@@H](CC(C)C)C(=O)N3CCCC[C@@H]3C(=O)N[C@H](Cc3ccccc3)COc3cc(C)nc(OC)c3C(=O)N2)on1 [Example 533, (7S,11S,17aR,20R)-20-benzyl-11-isobutyl-4-methoxy-N-(2-(3-methoxyisoxazol-5-yl)ethyl)-2,10-dimethyl-5,9,12,18-tetraoxo-5,6,7,8,9,10,11,12,15,16,17,17a,18,19,20,21-hexadecahydro-14H-dipyrido[2,1-f:3′,4′-p][1]oxa[4,7,10,14]tetraazacycloheptadecine-7-carboxamide]
0.273 µM	394%		Cc1cc(CCNC(=O)[C@@H]2CC(=O)N(C)[C@@H](CC(C)C)C(=O)N3CCCC[C@@H]3C(=O)N[C@H](Cc3ccccc3)COc3cnc4cccc(F)c4c3C(=O)N2)on1 [Example 534, (9S,13S,19aR,22R)-22-benzyl-6-fluoro-13-isobutyl-12-methyl-N-(2-(3-methylisoxazol-5-yl)ethyl)-7,11,14,20-tetraoxo-7,8,9,10,11,12,13,14,17,18,19,19a,20,21,22,23-hexadecahydro-16H-pyrido[2′,1′:6,7][1]oxa[4,7,10,14]tetraazacycloheptadecino[17,16-c]quinoline-9-carboxamide]
